The text below walks through data of article PMC8213057, “Targeting ALK2: An Open Science Approach to Developing Therapeutics for the Treatment of Diffuse Intrinsic Pontine Glioma” (Journal of Medicinal Chemistry, 2020).

One data set has as its target T1, ALK2 (Homo sapiens, UniProt Q04771).
T1 construct: host or cells: HEK-293
T1 sequence (Q04771 21-509): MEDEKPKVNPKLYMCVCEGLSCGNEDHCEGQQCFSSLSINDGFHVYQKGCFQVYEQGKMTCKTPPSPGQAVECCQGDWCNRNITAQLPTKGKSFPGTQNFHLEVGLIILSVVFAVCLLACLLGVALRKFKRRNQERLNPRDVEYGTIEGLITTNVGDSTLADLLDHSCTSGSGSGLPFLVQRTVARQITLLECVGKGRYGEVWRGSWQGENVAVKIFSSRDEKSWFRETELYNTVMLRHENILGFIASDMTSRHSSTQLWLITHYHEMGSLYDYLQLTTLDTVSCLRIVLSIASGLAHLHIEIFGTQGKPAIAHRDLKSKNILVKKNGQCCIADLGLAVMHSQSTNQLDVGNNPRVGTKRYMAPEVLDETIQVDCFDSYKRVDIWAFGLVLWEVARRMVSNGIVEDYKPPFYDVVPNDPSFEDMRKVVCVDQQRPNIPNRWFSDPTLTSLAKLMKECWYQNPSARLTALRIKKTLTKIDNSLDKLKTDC
Put plainly: NanoBRET target engagement assay in HEK293 cells. The format is cell-based. Particulars: DLA ALK5 IC50 / NanoBRET ALK2 IC50.

The next data set deals with T2, ALK2/ACVR1 (Homo sapiens, UniProt Q04771).
T2 construct: purchased Reaction Biology Corporation
T2 sequence (Q04771 21-509): T1 sequence (Q04771 21-509)
Type of data set: biochemical. Particulars: for Fold Selectivity (ALK5/ALK2): biochemical ALK5 IC50 / ALK2 IC50; for fold decrease in inhibitory activity against ALK2: biochemical, relative to M4K2149.

Data set [1] deals with Caco-2 cells. The data set is described as follows: Caco-2 permeability assay. Particulars: 5 μM. (In general: Caco-2 monolayers are a common model of the intestinal barrier.)
The nature of a further data set: in vivo. The settings on record: female, CB17 SCID, mouse, po, 10 mg/kg.
Data set [2] can be described thus: mouse liver microsomal stability assay. Type of data set: in vitro ADME. Particulars: male, 60 min, 37 °C, read-out: MLM % Remaining at 1h. On the technique in general: Liver microsomes are a subcellular fraction often used to study metabolism.
Data set [3] is described as follows: human liver microsomal stability assay. Type of data set: in vitro ADME. The settings on record: pH 7.4, human liver microsomes, 60 min, 37 °C, read-out: HLM % Remaining at 1h.
Data set [4] has as its system Caco-2 cells. Further details: method as in earlier work. Particulars: unpublished results ref 21; cited from earlier work.
Another data set deals with T3, hERG potassium channel (Homo sapiens, UniProt Q12809).
T3 construct: host or cells: HEK293
T3 sequence (Q12809 whole entry): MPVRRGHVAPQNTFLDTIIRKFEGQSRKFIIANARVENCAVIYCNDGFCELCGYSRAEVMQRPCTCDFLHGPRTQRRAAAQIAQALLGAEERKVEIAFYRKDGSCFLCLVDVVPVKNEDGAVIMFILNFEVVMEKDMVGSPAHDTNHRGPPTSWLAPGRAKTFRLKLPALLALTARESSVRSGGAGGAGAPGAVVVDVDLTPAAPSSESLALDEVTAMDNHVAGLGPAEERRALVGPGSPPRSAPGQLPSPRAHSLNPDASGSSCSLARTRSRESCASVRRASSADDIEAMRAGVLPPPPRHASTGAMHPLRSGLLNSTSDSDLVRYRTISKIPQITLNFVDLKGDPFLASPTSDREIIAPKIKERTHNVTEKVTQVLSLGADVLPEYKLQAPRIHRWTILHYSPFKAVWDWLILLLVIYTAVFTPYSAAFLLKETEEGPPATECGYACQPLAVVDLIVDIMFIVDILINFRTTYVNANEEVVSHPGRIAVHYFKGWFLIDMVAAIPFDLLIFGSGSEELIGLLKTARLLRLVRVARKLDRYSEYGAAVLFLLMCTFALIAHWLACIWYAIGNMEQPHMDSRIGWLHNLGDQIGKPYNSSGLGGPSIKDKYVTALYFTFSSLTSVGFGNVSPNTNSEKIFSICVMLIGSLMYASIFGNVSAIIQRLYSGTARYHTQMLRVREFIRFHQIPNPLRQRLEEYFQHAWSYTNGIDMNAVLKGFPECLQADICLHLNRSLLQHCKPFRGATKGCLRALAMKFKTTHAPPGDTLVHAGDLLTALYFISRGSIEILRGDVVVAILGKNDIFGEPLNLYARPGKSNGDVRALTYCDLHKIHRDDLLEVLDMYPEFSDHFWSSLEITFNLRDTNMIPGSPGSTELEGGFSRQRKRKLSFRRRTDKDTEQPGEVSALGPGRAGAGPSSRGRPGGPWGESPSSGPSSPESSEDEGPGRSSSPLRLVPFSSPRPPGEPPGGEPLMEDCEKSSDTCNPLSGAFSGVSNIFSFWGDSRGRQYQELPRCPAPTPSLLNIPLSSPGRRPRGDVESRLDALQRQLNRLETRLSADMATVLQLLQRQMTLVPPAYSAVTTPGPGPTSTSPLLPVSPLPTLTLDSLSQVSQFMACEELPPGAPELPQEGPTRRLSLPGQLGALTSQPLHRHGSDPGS
Put plainly: hERG patch-clamp assay in HEK293 cells. Particulars: HEK293 cell-based patch-clamp.

Data set [5] in a line: Caco-2 permeability assay. The settings on record: human.
Another data set is described as follows: in vitro. Particulars: human, Caco-2, pH 7.4.
[6] abbreviates: CD-1, mouse, microsomes, pH 7.4, mouse liver microsomes.
The mark [7] stands for this setting: CD-1, pH 7.4, mouse liver microsomes.

“And” between values parts separate entries of the source, which are not always exact repeats. Equal values may be shown once.

By IC50 is commonly meant the concentration that inhibits the measured activity by half. With `Cc1c(-c2ccc(C(N)=O)cc2)cncc1-c1ccc(N2CCNCC2)cc1` [Compound 20b, 4-(4-Methyl-5-(4-(piperazin-1-yl)phenyl)pyridin-3-yl)benzamide], the “Cell-based Fold Selectivity” value at ALK2 was more than 1. At ALK2/ACVR1, the “Fold Selectivity (ALK5/ALK2)” value is given as more than 10 and the “fold decrease in inhibitory activity against ALK2” value worked out at 28 fold. In addition, the IC50 at ALK5 is more than 5 µM. Moreover, in the data set with DLA ALK5, the half-inhibitory concentration (IC50) was more than 5 µM.
What is called half-life is how long it takes for the measured level to halve. Low readings indicate fast loss, high ones slow loss. `COc1cc(-c2cncc(-c3ccc(N4CCNCC4)cc3)c2C)cc(F)c1C(N)=O` [Compound 8b, 2-Fluoro-6-methoxy-4-(4-methyl-5-(4-(piperazin-1-yl)phenyl)pyridin-3-yl)benzamide]: at ALK2/ACVR1, the “Fold Selectivity (ALK5/ALK2)” value was found to be 80. For the same molecule, the Papp_AB in the data set on Caco-2 cells [1] (Caco-2, apical to basolateral) is reported as 0.3 10^-6 cm/s. The Papp_BA with Caco-2 cells [1] (Caco-2, basolateral to apical) is on record as 10.7 10^-6 cm/s. In addition, in the data set “in vivo”, the half-life at 24 h is 1.31 h. For the same molecule, the share remaining at 1 h, 1 μM in data set [2] (setting [6]) was 98.4%; in data set [3] (human, microsomes), 105%.
With `Cc1c(-c2ccc(N3CCNCC3)cc2)cncc1-c1ccc2c(c1)CNC2=O` [Compound 20a, 5-(4-Methyl-5-(4-(piperazin-1-yl)phenyl)pyridin-3-yl)isoindolin-1-one], the “Fold Selectivity (ALK5/ALK2)” value at ALK2/ACVR1 was more than 7. At ALK5, this molecule had an IC50 of more than 5 µM.
On to `Cc1c(-c2ccc(N3CCNCC3)cc2)cncc1-c1ccc(C(N)=O)c(F)c1` [Compound 20d, 2-Fluoro-4-(4-methyl-5-(4-(piperazin-1-yl)phenyl)pyridin-3-yl)benzamide], for which the “Cell-based Fold Selectivity” value at ALK2 is on record as more than 4. In addition, at ALK2/ACVR1, the “Fold Selectivity (ALK5/ALK2)” value was more than 19. For the same molecule, the concentration for half-maximal inhibition (IC50) at ALK5 and in the data set on DLA ALK5 was more than 5 µM in each case.
On to `CNC(=O)c1ccc(-c2cncc(-c3ccc(N4CCNCC4)cc3)c2C)cc1OC`, for which the half-inhibitory concentration (IC50) is more than 5 µM in the data set on NanoBRET ALK2, more than 1 µM at ALK2 (WT), more than 5 µM against ALK5 and more than 5 µM in the data set on DLA ALK5.
On to `COc1c(C(N)=O)csc1-c1cncc(-c2ccc(N3CCNCC3)cc2)c1C`, for which the half-maximal inhibitory concentration (IC50) in the data set on NanoBRET ALK2 is more than 5 µM; against ALK2 (WT), more than 1 µM; against ALK5 it was more than 5 µM; with DLA ALK5, more than 5 µM.
For the molecule `COc1cc(C(N)=O)cc(-c2cncc(-c3ccc(N4CCNCC4)cc3)c2C)c1` [Compound 14b, 3-Methoxy-5-(4-methyl-5-(4-(piperazin-1-yl)phenyl)pyridin-3-yl)benzamide], the “Cell-based Fold Selectivity” value at ALK2 is on record as more than 8. In addition, at ALK2/ACVR1, the “Fold Selectivity (ALK5/ALK2)” value is more than 49. Moreover, the IC50 on ALK5 and in the data set on DLA ALK5 was more than 5 µM throughout.
As for `COc1cc(-c2cncc(-c3ccc(N4CCNCC4)cc3)c2C)ccc1C(=O)N(C)C`, the IC50 is more than 5 µM in the data set with NanoBRET ALK2, more than 1 µM against ALK2 (WT), more than 5 µM against ALK5 and more than 5 µM in the data set with DLA ALK5.
As usually defined, the efflux ratio is the permeability from basolateral to apical divided by that in the opposite direction, in the common usage. As for `COc1cc(-c2cncc(-c3ccc(N4CCNCC4)cc3)c2C)ccc1C(N)=O` [Compound M4K2149], in the data set with Caco-2 cells [4], the efflux ratio is on record as 8.1. The IC50 is more than 50 µM against hERG potassium channel; >50 µM and >30 µM in the data set with hERG.
Regarding `COc1ccc(-c2cncc(-c3ccc(N4CCNCC4)cc3)c2C)cc1C(N)=O` [Compound 14a, 2-Methoxy-5-(4-methyl-5-(4-(piperazin-1-yl)phenyl)pyridin-3-yl)benzamide], at ALK2, the “Cell-based Fold Selectivity” value is more than 7. The IC50 against ALK2 (WT) is more than 1 µM; against ALK5, more than 5 µM; with DLA ALK5, more than 5 µM.
In the case of `COc1cc(-c2cncc(-c3ccc(N4CCNCC4)cc3)c2C)cc(Cl)c1C(N)=O` [Compound 20e, 2-Chloro-6-methoxy-4-(4-methyl-5-(4-(piperazin-1-yl)phenyl)pyridin-3-yl)benzamide], the “Cell-based Fold Selectivity” value on ALK2 is more than 54. The half-maximal inhibitory concentration (IC50) on ALK2 (G328V) is less than 0.002 µM; in the data set with DLA ALK5 it was more than 5 µM.
The Papp A→B is how fast a substance crosses the layer from the apical side. What is called Papp B→A is the apparent permeability from the basolateral to the apical side of a cell layer. In data set [5] (Caco-2, pH 7.4), `COc1cc(-c2cncc(-c3ccc(N4CCN(C)CC4)cc3)c2C)cc(OC)c1C(N)=O` [Compound 26d, 2,6-Dimethoxy-4-(4-methyl-5-(4-(4-methylpiperazin-1-yl)phenyl)pyridin-3-yl)benzamide] showed an apical-to-basolateral permeability (Papp A→B) at 120 min, 5 μM of 0.7 ×10⁻⁶ cm/s. This molecule also came in with an apparent permeability from basolateral to apical (Papp B→A) at 120 min, 5 μM in [5] (Caco-2, pH 7.4) of 13.9 ×10⁻⁶ cm/s. Besides, the efflux ratio at 120 min, 5 μM in [5] (Caco-2, pH 7.4) is more than 10. Besides, the figures for the IC50 against ALK2 (G328V), against ALK2 (WT) and against ALK2 (R258G) were less than 0.002 µM, less than 0.003 µM and less than 0.002 µM, respectively. Besides, the share remaining at 1 h, 1 μM in data set [2] (setting [7]) is 85.2%; in data set [3] (pooled liver microsomes), 81.4%.
On to `COc1cc(-c2cncc(-c3ccc(N4C[C@@H](C)N(C)[C@@H](C)C4)cc3)c2C)cc(OC)c1C(N)=O` [Compound 26f, 2,6-Dimethoxy-4-(4-methyl-5-(4-((3R,5S)-3,4,5-trimethylpiperazin-1-yl)phenyl)pyridin-3-yl)benzamide], for which the apical-to-basolateral permeability (Papp A→B) in “in vitro” was 0.7 ×10⁻⁶ cm/s. Also, the apparent permeability from basolateral to apical (Papp B→A) in “in vitro” amounted to 12.6 ×10⁻⁶ cm/s. Moreover, in the data set with NanoBRET ALK2, the concentration for half-maximal inhibition (IC50) is 0.021 µM. The share remaining at 1 h, 1 μM in data set [2] (setting [6]) stood at 57.5%; in data set [3] (human, microsomes) it was 55.7%.
Consider `COc1cc(-c2cncc(-c3ccc(N4CCN(C(C)C)CC4)cc3)c2C)cc(OC)c1C(N)=O` [Compound 26e, 4-(5-(4-(4-Isopropylpiperazin-1-yl)phenyl)-4-methylpyridin-3-yl)-2,6-dimethoxybenzamide], for which the “Fold Selectivity (ALK5/ALK2)” value at ALK2/ACVR1 is 13. In data set [5] (Caco-2, pH 7.4), this molecule returned an apparent permeability from apical to basolateral (Papp A→B) at 120 min, 5 μM of 0.9 ×10⁻⁶ cm/s and a Papp B→A at 120 min, 5 μM of 14.4 ×10⁻⁶ cm/s. The efflux ratio at 120 min, 5 μM in data set [5] (Caco-2, pH 7.4, Efflux ratio, Caco-2, Papp (B-to-A)/Papp (A-to-B)) was more than 10. The share remaining at 1 h, 1 μM in data set [2] (setting [7]) stood at 99.5%. Also, in [3] (pooled liver microsomes), the amount remaining at 1 h, 1 μM amounted to 98%.
As for `COc1c(-c2cncc(-c3ccc(N4CCNCC4)cc3)c2C)csc1C(N)=O` [Compound 7b, 3-Methoxy-4-(4-methyl-5-(4-(piperazin-1-yl)phenyl)pyridin-3-yl)thiophene-2-carboxamide], the “Cell-based Fold Selectivity” value at ALK2 is given as more than 1. Also, on ALK2/ACVR1, the “Fold Selectivity (ALK5/ALK2)” value is given as more than 7 and the “fold decrease in inhibitory activity against ALK2” value was “greater than 40 fold”. This molecule registered a half-maximal inhibitory concentration (IC50) against ALK5 of more than 5 µM. The same molecule showed a 50% inhibitory concentration (IC50) in the data set with DLA ALK5 of more than 5 µM.
As for `COc1cc(-c2cncc(-c3ccc(N4CCNCC4)cc3)c2C)sc1C(N)=O` [Compound 7a, 3-Methoxy-5-(4-methyl-5-(4-(piperazin-1-yl)phenyl)pyridin-3-yl)thiophene-2-carboxamide], on ALK2, the “Cell-based Fold Selectivity” value is listed as more than 1. On ALK2/ACVR1, the “Fold Selectivity (ALK5/ALK2)” value is more than 6 and the “fold decrease in inhibitory activity against ALK2” value is “greater than 40 fold”. The half-inhibitory concentration (IC50) at ALK5 was more than 5 µM. In the data set on DLA ALK5, the concentration for half-maximal inhibition (IC50) is more than 5 µM.
Consider `COCc1cc(-c2cncc(-c3ccc(N4CCNCC4)cc3)c2C)ccc1C(N)=O` [Compound 20c, 2-(Methoxymethyl)-4-(4-methyl-5-(4-(piperazin-1-yl)phenyl)pyridin-3-yl)benzamide], for which the “Cell-based Fold Selectivity” value at ALK2 is reported as more than 1. Moreover, the “Fold Selectivity (ALK5/ALK2)” value at ALK2/ACVR1 is on record as more than 7. Also, the IC50 at ALK5 and in the data set with DLA ALK5 was more than 5 µM each time.
As for `COc1cc(-c2cncc(-c3ccc(N4CCNCC4)cc3)c2C)cc(OC)c1C(N)=O` [Compound 8c, 2,6-Dimethoxy-4-(4-methyl-5-(4-(piperazin-1-yl)phenyl)pyridin-3-yl)benzamide], at ALK2/ACVR1, the “Fold Selectivity (ALK5/ALK2)” value is recorded as 9. The Papp A→B at 120 min, 5 μM in data set [5] (Caco-2, pH 7.4) came out at 0.1 ×10⁻⁶ cm/s. This molecule also yielded a Papp B→A at 120 min, 5 μM in data set [5] (Caco-2, pH 7.4) of 6.1 ×10⁻⁶ cm/s. In addition, the amount remaining at 1 h, 1 μM in data set [2] (setting [7]) was found to be 99.8%; in [3] (pooled liver microsomes), 88.8%.
